According to PMC10709440, “High-throughput ligand profile characterization in novel cell lines expressing seven heterologous insect olfactory receptors for the detection of volatile plant biomarkers” (Scientific Reports, 2023):
Like-named read-outs stand apart in the source and are kept apart here.

Tests used:
Drosophila OR13a = target: T1, Drosophila OR13a (Drosophila melanogaster, UniProt Q9VXL0); assay: Calcium ion fluorescence (GCaMP6) assay, OR13a stable HEK293 cell line; type: cell-based; settings: for DF norm AVERAGE OR13a: normalized fluorescence change, values below 0.05 threshold given as 0
T1 construct: expressed in transfected cells
T1 sequence (Q9VXL0 1-418): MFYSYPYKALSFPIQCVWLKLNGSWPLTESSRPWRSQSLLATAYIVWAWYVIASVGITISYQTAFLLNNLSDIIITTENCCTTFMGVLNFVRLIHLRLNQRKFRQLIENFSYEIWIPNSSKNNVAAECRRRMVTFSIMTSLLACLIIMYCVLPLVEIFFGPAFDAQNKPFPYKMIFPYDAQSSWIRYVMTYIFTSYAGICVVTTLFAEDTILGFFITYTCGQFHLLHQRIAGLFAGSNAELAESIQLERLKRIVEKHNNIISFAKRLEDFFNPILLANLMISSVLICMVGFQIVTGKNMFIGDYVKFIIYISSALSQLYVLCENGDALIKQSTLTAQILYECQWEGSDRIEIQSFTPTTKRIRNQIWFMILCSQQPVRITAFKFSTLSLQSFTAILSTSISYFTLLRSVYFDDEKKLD
T1 sequence (Q9VNB5 1-486 partner): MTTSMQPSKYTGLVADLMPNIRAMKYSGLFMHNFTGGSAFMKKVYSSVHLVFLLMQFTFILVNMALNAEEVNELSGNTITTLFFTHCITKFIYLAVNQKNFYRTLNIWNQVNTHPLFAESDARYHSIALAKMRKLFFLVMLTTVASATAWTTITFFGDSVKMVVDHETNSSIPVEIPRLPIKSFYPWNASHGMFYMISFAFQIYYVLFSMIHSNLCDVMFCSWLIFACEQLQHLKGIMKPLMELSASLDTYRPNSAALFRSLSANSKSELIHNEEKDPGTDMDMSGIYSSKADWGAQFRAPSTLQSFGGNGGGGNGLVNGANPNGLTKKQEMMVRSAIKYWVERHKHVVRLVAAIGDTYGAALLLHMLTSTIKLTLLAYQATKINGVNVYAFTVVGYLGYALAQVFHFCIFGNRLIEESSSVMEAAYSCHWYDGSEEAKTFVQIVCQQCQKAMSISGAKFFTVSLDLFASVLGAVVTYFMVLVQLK
Description: (§1) These VUAA1 normalized ∆F values were used to compare the different receptors and ligands.
(§2) The concentration-dependent effect of the reference ligands on their cognate cell lines was examined in more detail. Twelve different ligand concentrations were measured on each cell line in an overall 0.01 μM to 100 μM concentration range with 5 repetitions with three technical replicates each time.
(§3) Twelve thousand to 18,000 cells were plated into each well of a black wall, transparent bottom 384-well microplate (Greiner) 48 h or 72 h before the measurements and were simultaneously treated with 1 μg/mL doxycycline. […] The plate has 24 columns, thus we could record responses in up to eight different cell lines in each plate. On the day of the experiment, the growth medium was replaced with 20 µL assay buffer/well (140 mM NaCl, 5 mM KCl, 2 mM CaCl2, 1 mM MgCl2, 5 mM HEPES-Na, 20 mM glucose, pH 7.3, 340 mOsm). […] Baseline fluorescence (F0) was recorded for 5 s, after which 7 µL VOC buffer (140 mM NaCl, 5 mM KCl, 2 mM CaCl2, 1 mM MgCl2, 5 mM HEPES-Na, 31 mM glucose, 0.1% DMSO, pH 7.3, 340 mOsm) was injected into each well in one row and the fluorescence response was recorded for an additional 30 s, at a rate of one read/sec. VOC solutions (VOC buffer with 4× concentration of the final measured VOC concentration, 9 µL/well was injected) were measured on the same wells in a second round with the same protocol. Each individual concentration of a specific VOC sample was recorded in three wells for the same cell line on the same microplate. The raw data were exported in xls file format, F0 and FMAX values, and the fluorescence intensity changes (∆F) were calculated in Excel (Microsoft) (Supplementary file Data summary.xlsx) using the following equation: ΔF=FMAX-F0/F0 (see also Fig. 1C). On each plate, we recorded the response of each cell line to 50 µM VUAA1. The average of these ∆F values of each cell line were used to calculate the VUAA1-normalized values for the rest of the plate, by dividing VOC response ∆F values by the average VUAA1 response ∆F value of the corresponding OR cell line. Each VOC-OR combination was measured three times as technical replicates. […] The average of these replicates were used as one ∆F and VUAA1-normalized ∆F in the following analysis.
(§4) In the next rows we tested the reference VOCs (or other VOCs known to activate the corresponding cell lines), in order to test if all cell lines are responsive. The remaining rows were used to test VOCs with unknown effect.
(§5) The recorded FMAX, F0, ∆F, VUAA1-normalized ∆F values, as well as the OR name, the name of the tested sample, and the final concentration for each well were copied into supplementary file Data summary.xlsx, that was used to summarize all the plates recorded. Here, the averages of the measurements were calculated for each receptor-VOC-concentration combination.

Drosophila OR98a = target: T2, Drosophila OR98a (Drosophila melanogaster, UniProt Q9VAZ3); assay: Calcium ion fluorescence (GCaMP6) assay, OR98a stable HEK293 cell line; type: cell-based; settings: for DF norm AVERAGE OR98a: normalized fluorescence change, values below 0.05 threshold given as 0
T2 construct: expressed in transfected cells
T2 sequence (Q9VAZ3 1-397): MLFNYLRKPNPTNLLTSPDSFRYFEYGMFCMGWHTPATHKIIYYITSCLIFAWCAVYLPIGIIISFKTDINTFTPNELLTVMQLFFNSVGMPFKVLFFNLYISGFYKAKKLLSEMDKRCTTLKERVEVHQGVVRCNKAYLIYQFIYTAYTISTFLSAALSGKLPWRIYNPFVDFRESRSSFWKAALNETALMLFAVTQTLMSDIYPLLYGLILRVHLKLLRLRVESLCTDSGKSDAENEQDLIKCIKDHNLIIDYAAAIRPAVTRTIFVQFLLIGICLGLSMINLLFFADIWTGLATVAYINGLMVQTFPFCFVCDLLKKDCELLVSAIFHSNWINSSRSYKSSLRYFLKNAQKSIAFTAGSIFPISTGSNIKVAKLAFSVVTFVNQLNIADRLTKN
T2 sequence (Q9VNB5 1-486 partner): T1 sequence (Q9VNB5 1-486 partner)
Description: as §1, §2, §3, §4, §5

[1] = HEK293, read-out: OR13a Average response (VUAA1-normalized), 1 μM VOC, 50 μM VUAA1 = 1, responses not exceeding 0.05 considered 0
[2] = HEK293, read-out: OR13a Average response (VUAA1-normalized), 10 μM VOC, 50 μM VUAA1 = 1, responses not exceeding 0.05 considered 0
[3] = HEK293, read-out: OR13a Average response (VUAA1-normalized), 100 μM VOC, 50 μM VUAA1 = 1, responses not exceeding 0.05 considered 0
[4] = HEK293, read-out: OR13a response (VUAA1-normalized response), VOC concentration 1 μM
[5] = HEK293, read-out: OR13a response (VUAA1-normalized response), VOC concentration 10 μM
[6] = HEK293, read-out: OR13a response (VUAA1-normalized response), VOC concentration 100 μM
[7] = HEK293, read-out: Average response
[8] = HEK293, read-out: OR98a response (VUAA1-normalized response)
[9] = HEK293, read-out: OR98a Average response (VUAA1-normalized)

SMILES	activation at 1 µM (Drosophila OR13a; [1])	activation at 10 µM (Drosophila OR13a; [2])	activation at 100 µM (Drosophila OR13a; [3])	activation at 1 µM (Drosophila OR13a; [4])	activation at 10 µM (Drosophila OR13a; [5])	activation at 100 µM (Drosophila OR13a; [6])	DF norm AVERAGE OR13a (Drosophila OR13a; concentration 1)	DF norm AVERAGE OR13a (Drosophila OR13a; concentration 10)	DF norm AVERAGE OR13a (Drosophila OR13a; concentration 100)	activation at 1 µM (Drosophila OR98a; [7])	activation at 10 µM (Drosophila OR98a; [7])	activation at 100 µM (Drosophila OR98a; [7])	activation at 1 µM (Drosophila OR98a; [8])	activation at 10 µM (Drosophila OR98a; [8])	activation at 100 µM (Drosophila OR98a; [8])	DF norm AVERAGE OR98a (Drosophila OR98a; concentration 1)	DF norm AVERAGE OR98a (Drosophila OR98a; concentration 10)	DF norm AVERAGE OR98a (Drosophila OR98a; concentration 100)	also measured
CCCCCO [1-pentanol]	0%	1.6%	0%	0%	0%	0%	0	0	0	0%	2.81%	0%	0%	0%	0%	0	0	0	
CCCCCC(C)O (stereo not drawn) [2-heptanol]	4%	0%	8%	0%	0%	8%	0	0	0.07697	3.25%	3.67%	16%	0%	0%	16%	0	0	0.1574	activation at 1 µM (Drosophila OR98a; [9]): 3%; activation at 10 µM (Drosophila OR98a; [9]): 4%; activation at 100 µM (Drosophila OR98a; [9]): 16%
